“And” between values parts separate entries of the source, which are not always exact repeats. Equal entries are not always repeated.
Test system: G93A transgenic mice
Assay: Survival of G93A murine ALS model mice treated with MGd from symptom onset
Type: in vivo
Settings: for survival interval (survival data used for plot B), individual animals: one value per mouse, unit days
Source text: Transgenic mice which overexpress the G93A human Cu, Zn superoxide dismutase (SOD 1) mutant develop motor paralysis similar to amyotrophic lateral sclerosis (ALS) in humans. At 90-100 days of age, these mice develop hindlimb weakness which rapidly progresses to total body paralysis within 2-3 weeks. Such trangenic mice were used to evaluate the survival and neuroprotective action of MGd with G93A transgenic mice. In particular, the purpose of this study was to test the effect of MGd (administered at a loading dose of 5 mg/kg and a maintenance dose of 2.5 mg/kg/day i.p. thereafter).
Studies involved the use of G93A overexpressing mice purchased directly from JAX Labs. Due to the high variability in age of onset (of motor neuron disease or MND) and total survival, a mouse colony was bred using the JAX Labs protocols. […] Therefore, littermate males were chosen to sire subsequent offspring and used to produce 10-12 litters of age-matched mice for drug studies. Typically 50-60 transgenic mice were obtained from 10-12 litters and, within these groups, the variability in age of onset and survival was quite low.
The procedure used involved monitoring the transgenic mice from several litters for onset of symptoms of motor neuron degeneration. At symptom onset (muscle weakness), mice were randomly assigned sequentially to either Control (no treatment) or Treatment (MGd-treated) groups. Mice were sacrificed when moribund (unable to assume upright posture), as required by animal welfare protocol. Motexafin gadolinium formulated at 2 mM (2.3 mg/ml) in 5% aqueous mannitol was used for this study and the study group involved 10-11 animals in each group, 21 animals total.
At the onset of symptoms MGd was administered via i.p injection at a loading dose of 5 mg/kg and a maintenance dose of 2.5 mg/kg/day i.p injection. was administered thereafter.
Transgenic mice which overexpress the G93A human Cu, Zn superoxide dismutase (SOD1) mutant develop motor paralysis similar to amyotrophic lateral sclerosis (ALS) in humans. At 90-100 days of age, these mice develop hindlimb weakness which rapidly progresses to total body paralysis within 2-3 weeks. Such trangenic mice were used to evaluate the survival and neuroprotective action of MGd with G93A transgenic mice. In particular, the purpose of this study was to test the effect of MGd (administered at a dose of 1 mg/kg/day i.p.).
The procedure used involved monitoring the transgenic mice from several litters for onset of symptoms of motor neuron degeneration. At symptom onset (muscle weakness), mice were randomly assigned sequentially to either Control (no treatment) or Treatment (MGd-treated) groups. Mice were sacrificed when moribund (unable to assume upright posture), as required by animal welfare protocol. Motexafin gadolinium formulated at 2 mM (2.3 mg/ml) in 5% aqueous mannitol was used for this study and the study group involved 9 animals in each group, 18 animals total.
At the onset of symptoms MGd was administered via i.p injection at a dose of 1 mg/kg/day.
Transgenic mice which overexpress the G93A human Cu, Zn superoxide dismutase (SOD 1) mutant develop motor paralysis similar to amyotrophic lateral sclerosis (ALS) in humans. At 90-100 days of age, these mice develop hindlimb weakness which rapidly progresses to total body paralysis within 2-3 weeks. Such trangenic mice were used to evaluate the survival and neuroprotective action of MGd with G93A transgenic mice. In particular, the purpose of this study was to test the effect of MGd (administered at a dose of 2.5 mg/kg/q.2d. and 2.5 mg/kg/q.4d. i.p.).
The procedure used involved monitoring the transgenic mice from several litters for onset of symptoms of motor neuron degeneration. At symptom onset (muscle weakness), mice were randomly assigned sequentially to either Control (no treatment) or Treatment (MGd-treated) groups. Mice were sacrificed when moribund (unable to assume upright posture), as required by animal welfare protocol. […]

Compound: CC(=O)[O-].CC(=O)[O-].CCc1c(CC)c2cc3nc(cnc4cc(OCCOCCOCCOC)c(OCCOCCOCCOC)cc4ncc4nc(cc1[n-]2)C(CCCO)=C4C)C(C)=C3CCCO.O.[Gd+3] [MGd, Motexafin Gadolinium]
- extension of mean survival over untreated control mice (Example 10, loading dose 5 mg/kg i.p., then 2.5 mg/kg/day i.p.): roughly 2.7 fold
- survival interval (survival data used for plot B), individual animals (Example 10, loading dose 5 mg/kg i.p., then 2.5 mg/kg/day i.p. from symptom onset): 53 days and 54 days and 26 days and 23 days and 21 days and 20 days and 46 days and 55 days and 36 days and 32 days
- mean survival (Example 10, loading dose 5 mg/kg i.p., then 2.5 mg/kg/day i.p., untreated control 13.4 days, p=4×10^−5): 36.6 days
- extension of mean survival over untreated control mice (Example 11, 1 mg/kg/day i.p.): roughly 2.5 fold
- survival interval (survival data used for plot B), individual animals (Example 11, 1 mg/kg/day i.p. from symptom onset, 1 mg/kg/day): 48 days and 41 days (2×) and 35 days (2×) and 49 days and 39 days and 52 days and 54 days
- mean survival (Example 11, 1 mg/kg/day i.p., untreated control 17.2 days, p<1×10^−5): 43.8 days
- extension of survival over untreated control mice (Example 12, 2.5 mg/kg/q.2d. i.p.): roughly 1.3 fold
- survival interval (survival data used for plot B), individual animals (Example 12, 2.5 mg/kg/q.2d. i.p. from symptom onset, 2.5 mg/kg): 20 days and 37 days and 35 days and 30 days and 28 days (2×)
- mean survival (Example 12, 2.5 mg/kg/q.2d. i.p., untreated control 23 days, p=0.069): 30 days
- extension of survival over untreated control mice (Example 12, 2.5 mg/kg/q.4d. i.p.): ~1.4 fold
- survival interval (survival data used for plot B), individual animals (Example 12, 2.5 mg/kg/q.4d. i.p. from symptom onset, 2.5 mg/kg): 30 days and 38 days and 20 days and 35 days and 26 days and 47 days
- mean survival (Example 12, 2.5 mg/kg/q.4d. i.p., untreated control 23 days, p=0.068): 33 days
